ChEMBL document CHEMBL3044736, “Synthesis, characterization, solvatochromic properties, and antimicrobial evaluation of 5-acetyl-2-thioxo-dihydro-pyrimidine-4,6-dione-based chalcones” (2013)
≈ marks a conversion by molar mass, not a printed value.

What was measured:
Type in all cases: functional
Penicillium [1] = assay: Antimicrobial activity against Penicillium wild strain assessed as diameter of growth inhibition zone at 250 ug/ml after 48-96 hr by agar cup diffusion method; settings: read-out: DIZ
Penicillium [2] = assay: Antimicrobial activity against Penicillium wild strain assessed as diameter of growth inhibition zone at 100 ug/ml after 48-96 hr by agar cup diffusion method; settings: read-out: DIZ
Trichophyton rubrum [3] = assay: Antimicrobial activity against Trichophyton rubrum MTCC 296 assessed as diameter of growth inhibition zone at 100 ug/ml after 48-96 hr by agar cup diffusion method; settings: read-out: DIZ
Aspergillus clavatus [4] = assay: Antimicrobial activity against Aspergillus clavatus MTCC 1323 assessed as diameter of growth inhibition zone at 100 ug/ml after 48-96 hr by agar cup diffusion method; settings: read-out: DIZ
Candida albicans [5] = assay: Antimicrobial activity against Candida albicans MTCC 227 assessed as diameter of growth inhibition zone at 100 ug/ml after 48-96 hr by agar cup diffusion method; settings: read-out: DIZ
Penicillium [6] = assay: Antimicrobial activity against Penicillium wild strain assessed as diameter of growth inhibition zone at 50 ug/ml after 48-96 hr by agar cup diffusion method; settings: read-out: DIZ
Trichophyton rubrum [7] = assay: Antimicrobial activity against Trichophyton rubrum MTCC 296 assessed as diameter of growth inhibition zone at 50 ug/ml after 48-96 hr by agar cup diffusion method; settings: read-out: DIZ
Aspergillus clavatus [8] = assay: Antimicrobial activity against Aspergillus clavatus MTCC 1323 assessed as diameter of growth inhibition zone at 50 ug/ml after 48-96 hr by agar cup diffusion method; settings: read-out: DIZ
Candida albicans [9] = assay: Antimicrobial activity against Candida albicans MTCC 227 assessed as diameter of growth inhibition zone at 50 ug/ml after 48-96 hr by agar cup diffusion method; settings: read-out: DIZ
Penicillium [10] = assay: Antimicrobial activity against Penicillium wild strain assessed as diameter of growth inhibition zone at 25 ug/ml after 48-96 hr by agar cup diffusion method; settings: read-out: DIZ
Trichophyton rubrum [11] = assay: Antimicrobial activity against Trichophyton rubrum MTCC 296 assessed as diameter of growth inhibition zone at 25 ug/ml after 48-96 hr by agar cup diffusion method; settings: read-out: DIZ
Aspergillus clavatus [12] = assay: Antimicrobial activity against Aspergillus clavatus MTCC 1323 assessed as diameter of growth inhibition zone at 25 ug/ml after 48-96 hr by agar cup diffusion method; settings: read-out: DIZ
Candida albicans [13] = assay: Antimicrobial activity against Candida albicans MTCC 227 assessed as diameter of growth inhibition zone at 25 ug/ml after 48-96 hr by agar cup diffusion method; settings: read-out: DIZ
Penicillium [14] = assay: Antimicrobial activity against Penicillium wild strain by agar cup diffusion method
Aspergillus clavatus [15] = assay: Antimicrobial activity against Aspergillus clavatus MTCC 1323 by agar cup diffusion method
Pseudomonas aeruginosa [16] = assay: Antimicrobial activity against Pseudomonas aeruginosa MTCC 1688 assessed as diameter of growth inhibition zone at 25 ug/ml after 18-24 hr by agar cup diffusion method; settings: read-out: DIZ
Escherichia coli [17] = assay: Antimicrobial activity against Escherichia coli MTCC 443 assessed as diameter of growth inhibition zone at 25 ug/ml after 18-24 hr by agar cup diffusion method; settings: read-out: DIZ
Staphylococcus aureus [18] = assay: Antimicrobial activity against Staphylococcus aureus MTCC 96 assessed as diameter of growth inhibition zone at 25 ug/ml after 18-24 hr by agar cup diffusion method; settings: read-out: DIZ
Streptococcus pyogenes [19] = assay: Antimicrobial activity against Streptococcus pyogenes MTCC 442 assessed as diameter of growth inhibition zone at 25 ug/ml after 18-24 hr by agar cup diffusion method; settings: read-out: DIZ
Klebsiella pneumoniae [20] = assay: Antimicrobial activity against Klebsiella pneumoniae MTCC 109 by agar cup diffusion method
Escherichia coli [21] = assay: Antimicrobial activity against Escherichia coli MTCC 443 by agar cup diffusion method
Pseudomonas aeruginosa [22] = assay: Antimicrobial activity against Pseudomonas aeruginosa MTCC 1688 by agar cup diffusion method
Staphylococcus aureus [23] = assay: Antimicrobial activity against Staphylococcus aureus MTCC 96 by agar cup diffusion method
Streptococcus pyogenes [24] = assay: Antimicrobial activity against Streptococcus pyogenes MTCC 442 by agar cup diffusion method
Trichophyton rubrum [25] = assay: Antimicrobial activity against Trichophyton rubrum MTCC 296 by agar cup diffusion method
Candida albicans [26] = assay: Antimicrobial activity against Candida albicans MTCC 227 by agar cup diffusion method
Klebsiella pneumoniae [27] = assay: Antimicrobial activity against Klebsiella pneumoniae MTCC 109 assessed as diameter of growth inhibition zone at 250 ug/ml after 18-24 hr by agar cup diffusion method; settings: read-out: DIZ
Pseudomonas aeruginosa [28] = assay: Antimicrobial activity against Pseudomonas aeruginosa MTCC 1688 assessed as diameter of growth inhibition zone at 250 ug/ml after 18-24 hr by agar cup diffusion method; settings: read-out: DIZ
Escherichia coli [29] = assay: Antimicrobial activity against Escherichia coli MTCC 443 assessed as diameter of growth inhibition zone at 250 ug/ml after 18-24 hr by agar cup diffusion method; settings: read-out: DIZ
Staphylococcus aureus [30] = assay: Antimicrobial activity against Staphylococcus aureus MTCC 96 assessed as diameter of growth inhibition zone at 250 ug/ml after 18-24 hr by agar cup diffusion method; settings: read-out: DIZ
Streptococcus pyogenes [31] = assay: Antimicrobial activity against Streptococcus pyogenes MTCC 442 assessed as diameter of growth inhibition zone at 250 ug/ml after 18-24 hr by agar cup diffusion method; settings: read-out: DIZ
Klebsiella pneumoniae [32] = assay: Antimicrobial activity against Klebsiella pneumoniae MTCC 109 assessed as diameter of growth inhibition zone at 100 ug/ml after 18-24 hr by agar cup diffusion method; settings: read-out: DIZ
Pseudomonas aeruginosa [33] = assay: Antimicrobial activity against Pseudomonas aeruginosa MTCC 1688 assessed as diameter of growth inhibition zone at 100 ug/ml after 18-24 hr by agar cup diffusion method; settings: read-out: DIZ
Escherichia coli [34] = assay: Antimicrobial activity against Escherichia coli MTCC 443 assessed as diameter of growth inhibition zone at 100 ug/ml after 18-24 hr by agar cup diffusion method; settings: read-out: DIZ
Staphylococcus aureus [35] = assay: Antimicrobial activity against Staphylococcus aureus MTCC 96 assessed as diameter of growth inhibition zone at 100 ug/ml after 18-24 hr by agar cup diffusion method; settings: read-out: DIZ
Streptococcus pyogenes [36] = assay: Antimicrobial activity against Streptococcus pyogenes MTCC 442 assessed as diameter of growth inhibition zone at 100 ug/ml after 18-24 hr by agar cup diffusion method; settings: read-out: DIZ
Klebsiella pneumoniae [37] = assay: Antimicrobial activity against Klebsiella pneumoniae MTCC 109 assessed as diameter of growth inhibition zone at 50 ug/ml after 18-24 hr by agar cup diffusion method; settings: read-out: DIZ
Pseudomonas aeruginosa [38] = assay: Antimicrobial activity against Pseudomonas aeruginosa MTCC 1688 assessed as diameter of growth inhibition zone at 50 ug/ml after 18-24 hr by agar cup diffusion method; settings: read-out: DIZ
Escherichia coli [39] = assay: Antimicrobial activity against Escherichia coli MTCC 443 assessed as diameter of growth inhibition zone at 50 ug/ml after 18-24 hr by agar cup diffusion method; settings: read-out: DIZ
Staphylococcus aureus [40] = assay: Antimicrobial activity against Staphylococcus aureus MTCC 96 assessed as diameter of growth inhibition zone at 50 ug/ml after 18-24 hr by agar cup diffusion method; settings: read-out: DIZ
Streptococcus pyogenes [41] = assay: Antimicrobial activity against Streptococcus pyogenes MTCC 442 assessed as diameter of growth inhibition zone at 50 ug/ml after 18-24 hr by agar cup diffusion method; settings: read-out: DIZ
Klebsiella pneumoniae [42] = assay: Antimicrobial activity against Klebsiella pneumoniae MTCC 109 assessed as diameter of growth inhibition zone at 25 ug/ml after 18-24 hr by agar cup diffusion method; settings: read-out: DIZ
Trichophyton rubrum [43] = assay: Antimicrobial activity against Trichophyton rubrum MTCC 296 assessed as diameter of growth inhibition zone at 250 ug/ml after 48-96 hr by agar cup diffusion method; settings: read-out: DIZ
Aspergillus clavatus [44] = assay: Antimicrobial activity against Aspergillus clavatus MTCC 1323 assessed as diameter of growth inhibition zone at 250 ug/ml after 48-96 hr by agar cup diffusion method; settings: read-out: DIZ
Candida albicans [45] = assay: Antimicrobial activity against Candida albicans MTCC 227 assessed as diameter of growth inhibition zone at 250 ug/ml after 48-96 hr by agar cup diffusion method; settings: read-out: DIZ

O=C(/C=C/c1ccc([N+](=O)[O-])cc1)C1C(=O)NC(=S)NC1=O
zone of inhibition at 250 µg/mL (Penicillium [1]): 25 mm
zone of inhibition at 100 µg/mL (Penicillium [2]): 23 mm
zone of inhibition at 100 µg/mL (Trichophyton rubrum [3]): 23 mm
zone of inhibition at 100 µg/mL (Aspergillus clavatus [4]): 22 mm
zone of inhibition at 100 µg/mL (Candida albicans [5]): 25 mm
zone of inhibition at 50 µg/mL (Penicillium [6]): 21 mm
zone of inhibition at 50 µg/mL (Trichophyton rubrum [7]): 22 mm
zone of inhibition at 50 µg/mL (Aspergillus clavatus [8]): 21 mm
zone of inhibition at 50 µg/mL (Candida albicans [9]): 21 mm
zone of inhibition at 25 µg/mL (Penicillium [10]): 21 mm
zone of inhibition at 25 µg/mL (Trichophyton rubrum [11]): 20 mm
zone of inhibition at 25 µg/mL (Aspergillus clavatus [12]): 20 mm
zone of inhibition at 25 µg/mL (Candida albicans [13]): 20 mm
MFC (Penicillium [14]): 500 µg/mL (≈ 1570 µM)
MIC (Penicillium [14]): 500 µg/mL (≈ 1570 µM)
MFC (Aspergillus clavatus [15]): 1000 µg/mL (≈ 3130 µM)
MIC (Aspergillus clavatus [15]): 1000 µg/mL (≈ 3130 µM)
zone of inhibition at 25 µg/mL (Pseudomonas aeruginosa [16]): 11 mm
zone of inhibition at 25 µg/mL (Escherichia coli [17]): 12 mm
zone of inhibition at 25 µg/mL (Staphylococcus aureus [18]): 11 mm
zone of inhibition at 25 µg/mL (Streptococcus pyogenes [19]): 12 mm
MBC (Klebsiella pneumoniae [20]): 200 µg/mL (≈ 626 µM)
MIC (Klebsiella pneumoniae [20]): 200 µg/mL (≈ 626 µM)
MBC (Escherichia coli [21]): 500 µg/mL (≈ 1570 µM)
MIC (Escherichia coli [21]): 250 µg/mL (≈ 783 µM)
MBC (Pseudomonas aeruginosa [22]): 250 µg/mL (≈ 783 µM)
MIC (Pseudomonas aeruginosa [22]): 250 µg/mL (≈ 783 µM)
MBC (Staphylococcus aureus [23]): 200 µg/mL (≈ 626 µM)
MIC (Staphylococcus aureus [23]): 125 µg/mL (≈ 391 µM)
MBC (Streptococcus pyogenes [24]): 100 µg/mL (≈ 313 µM)
MIC (Streptococcus pyogenes [24]): 100 µg/mL (≈ 313 µM)
MFC (Trichophyton rubrum [25]): 1000 µg/mL (≈ 3130 µM)
MIC (Trichophyton rubrum [25]): 1000 µg/mL (≈ 3130 µM)
MFC (Candida albicans [26]): 1000 µg/mL (≈ 3130 µM)
MIC (Candida albicans [26]): 1000 µg/mL (≈ 3130 µM)
zone of inhibition at 250 µg/mL (Klebsiella pneumoniae [27]): 16 mm
zone of inhibition at 250 µg/mL (Pseudomonas aeruginosa [28]): 20 mm
zone of inhibition at 250 µg/mL (Escherichia coli [29]): 23 mm
zone of inhibition at 250 µg/mL (Staphylococcus aureus [30]): 20 mm
zone of inhibition at 250 µg/mL (Streptococcus pyogenes [31]): 23 mm
zone of inhibition at 100 µg/mL (Klebsiella pneumoniae [32]): 15 mm
zone of inhibition at 100 µg/mL (Pseudomonas aeruginosa [33]): 18 mm
zone of inhibition at 100 µg/mL (Escherichia coli [34]): 19 mm
zone of inhibition at 100 µg/mL (Staphylococcus aureus [35]): 18 mm
zone of inhibition at 100 µg/mL (Streptococcus pyogenes [36]): 19 mm
zone of inhibition at 50 µg/mL (Klebsiella pneumoniae [37]): 13 mm
zone of inhibition at 50 µg/mL (Pseudomonas aeruginosa [38]): 13 mm
zone of inhibition at 50 µg/mL (Escherichia coli [39]): 15 mm
zone of inhibition at 50 µg/mL (Staphylococcus aureus [40]): 13 mm
zone of inhibition at 50 µg/mL (Streptococcus pyogenes [41]): 15 mm
zone of inhibition at 25 µg/mL (Klebsiella pneumoniae [42]): 11 mm
zone of inhibition at 250 µg/mL (Trichophyton rubrum [43]): 25 mm
zone of inhibition at 250 µg/mL (Aspergillus clavatus [44]): 24 mm
zone of inhibition at 250 µg/mL (Candida albicans [45]): 25 mm

O=C(O)c1cn(C2CC2)c2cc(N3CCNCC3)c(F)cc2c1=O [CIPROFLOXACIN]
MIC (Klebsiella pneumoniae [20]): 25 µg/mL (≈ 75.4 µM)
MIC (Escherichia coli [21]): 25 µg/mL (≈ 75.4 µM)
MIC (Staphylococcus aureus [23]): 100 µg/mL (≈ 302 µM)
MIC (Streptococcus pyogenes [24]): 50 µg/mL (≈ 151 µM)
